Laboratory results from article PMC4220977, “Enzyme–adenylate structure of a bacterial ATP-dependent DNA ligase with a minimized DNA-binding surface” (Acta Crystallographica Section D: Biological Crystallography, 2014).

Experiments:
Psy-Lig = target: T1, Psy-Lig (Psychromonas sp. SP041, UniProt A0ACD6BAT9); assay: X-ray crystal structure, […] Å (SeMet protein); assay type: binding; conditions: covalent; phosphoamide bond to Lys25 side chain (mature numbering), enzyme-adenylate intermediate formed from ATP; active site
T1 construct: mature protein, 40-residue periplasmic leader removed (cleavage Ala40/Gln41), 257 residues; N-terminal His tag and TEV site, vector pHMGWA, expressed in E. coli; pre-adenylated with ATP; SeMet form crystallised

[1] = substrate: Nc1ncnc2c1ncn2[C@@H]1O[C@H](COP(=O)(O)OP(=O)(O)OP(=O)(O)O)[C@@H](O)[C@H]1O; assay: molecular beacon fluorescence nick-sealing assay, Michaelis-Menten fit; assay type: biochemical, Psychromonas sp. SP041; conditions: 300 nM nicked ds-DNA beacon, 2.0 nM enzyme, 10 mM MgCl2, 100 mM NaCl, 1 mM DTT, 50 mM Tris pH 8.0, 30 °C, ATP 0-50 µM

| Molecule | X-ray crystal structure, 1.65 Å (SeMet protein) (Psy-Lig) | Km [1] [µM] |
| --- | --- | --- |
| Nc1ncnc2c1ncn2[C@@H]1O[C@H](COP(=O)(O)O)[C@@H](O)[C@H]1O [AMP] | AMP bound in the active site was clear in the observed electron density, covalently linked |  |
| Psy-Lig (Psychromonas sp. SP041) (protein, mature protein, 40-residue periplasmic leader removed (cleavage Ala40/Gln41), 257 residues; N-terminal His tag and TEV site, vector pHMGWA, expressed in E. coli; pre-adenylated with ATP; SeMet form crystallised) QPPPIQLATNYRQDIDVTQYYVSEKLDGIRAYWNGHQLISKQGNIFTAPTWFIASFPTTAMDGELWIARQQFETVSGIARTQDNQNEQWKQIKFMIFDLPKSTVSFEQRINKMQTLVTDTNSPYLQMIEQQKIPNTVALFDLLNKVVMGKGEGLMLHHQDALYQTKRSRDLMKLKKFEDAEATVIAYLPGKGKYEGLLGAILVKNEEGVTFKIGSGFSDEERSTPPPIGSLITYRFTGKTNNNIPRFASFVRIRVIY |  | 3.8 ± 0.7 |
